Laboratory results: patent US6753424B1, “Conjugates of DNA interacting groups with steroid hormones for use as nucleic acid transfection agents” (priority 1998, dated 2004)

Key:
[1] = tested on: GR-GFP chimera; assay: Nuclear Transfer Induction assay (NTI), monourethane ligands, HeLa cells; assay type: cell-based; conditions: 1 hr
Method: Conditions: HeLa cells are transiently transfected by CaPO4 with an expression vector encoding a GR-GFP chimera (5 μg in transfection cocktail, 4 cm diameter dishes, DMEM with 3% FCS). After 24 hour expression, ligand is added for 1 hr and cells are fixed with formaldehyde (5 min 4° C.) and inspected by fluorescence microscopy. Fluorescent cells are counted and divided into different classes according to ‘cytoplasmic’ (C) versus ‘nuclear’ (N) localisation of fluorescence.
First column: “Conditions”: Name of compounds added (marked at top: ‘//ligand’), and their concentration (in parentheses) and assay number (01 through 21).
Values are given as percentage of cells displaying the corresponding localisatidn, within each tested condition the sum is 100%.

[2] = tested on: GR-GFP chimera; assay: Nuclear Transfer Induction assay (NTI), diurethane ligands, CV-1 cells; assay type: cell-based; conditions: 4 hr
Method: Conditions: CV-1 cells are transiently transfected with DOTAP (Boehringer-Mannheim) with an expression vector encoding a GR-GFP chimera (see 8.1). After 36 hours expression, ligand is added for 4 hr and cells are fixed and counted as given in 8.1.

[3] = tested on: HUH-7 cells; assay: Transfection enhancement, CMV-LacZ reporter, HUH-7 cells; assay type: cell-based, human; parameters: key to net: net = (RLU:protein)×1000 − 600 (mock transfection level)
Method: Conditions: HUH-7 cells are human hepatoma cells that contain substantial amounts of glucocorticoid receptor. The cells are transfected with an expression vector that is constitutively expressing the reporter gene LacZ (CMV-LacZ). Transfection conditions and analysis of LacZ reporter are the same as described in Example 7 legend. Transfection is performed O/N and after rinsing of the precipitate the cells are further incubated for 24 hours. LacZ levels are determined from cell extracts with a chemiluminescence LacZ enzyme assay (Galactolight plus, Tropix). The relative luminescence from each extract is given. Each value represents an individual extract. “Induction”: relative reporter gene activity (values divided by value of assay in lane 9, true negative control for DNA liganding). rel/RLU=(RLU:protein)×1000; net=rel/RLU−600 (600=rel/RLU value approximately corresponding to rel/RLU value of mock transfection).

Row | SMILES | C < N, percentage of cells ([1]; ligand 1.10-7M) [%] | C << N, percentage of cells ([1]; ligand 1.10-7M) [%] | C = N, percentage of cells ([1]; ligand 1.10-7M) [%] | C > N, percentage of cells ([1]; ligand 1.10-7M) [%] | C >> N, percentage of cells ([1]; ligand 1.10-7M) [%] | C < N, percentage of cells ([1]; ligand 1.10-6M) [%] | C << N, percentage of cells ([1]; ligand 1.10-6M) [%] | C = N, percentage of cells ([1]; ligand 1.10-6M) [%] | C > N, percentage of cells ([1]; ligand 1.10-6M) [%] | C >> N, percentage of cells ([1]; ligand 1.10-6M) [%] | C < N, percentage of cells ([2]; ligand 5.10-6M) [%] | C << N, percentage of cells ([2]; ligand 5.10-6M) [%] | C = N, percentage of cells ([2]; ligand 5.10-6M) [%] | C > N, percentage of cells ([2]; ligand 5.10-6M) [%] | C >> N, percentage of cells ([2]; ligand 5.10-6M) [%] | C < N, percentage of cells ([2]; ligand 5.10-7M) [%] | C << N, percentage of cells ([2]; ligand 5.10-7M) [%] | C = N, percentage of cells ([2]; ligand 5.10-7M) [%] | C > N, percentage of cells ([2]; ligand 5.10-7M) [%] | C >> N, percentage of cells ([2]; ligand 5.10-7M) [%] | other results
1 | COC(=O)CCNC(=O)OCC(=O)[C@@]1(O)[C@H](C)CC2C3CCC4=CC(=O)C=CC4(C)[C@@]3(F)C(O)CC21C (stereo partly drawn) [DEX-C3-COOCH3, 2-carboxymethyl-ethyl-1-carboxamicacid-dexamethasone-21-ester] | 25 | 75 | 0 | 0 | 0 |  |  |  |  |  |  |  |  |  |  |  |  |  |  |  | C < N, percentage of cells ([1]; ligand 1.10-8M): 22%; C << N, percentage of cells ([1]; ligand 1.10-8M): 78%; C = N, percentage of cells ([1]; ligand 1.10-8M): 0%; C > N, percentage of cells ([1]; ligand 1.10-8M): 0%; C >> N, percentage of cells ([1]; ligand 1.10-8M): 0%
2 | C[C@@H]1C[C@H]2[C@@H]3CCC4=CC(=O)C=C[C@]4(C)[C@@]3(F)[C@@H](O)C[C@]2(C)[C@@]1(O)C(=O)CO [DEX, Dexamethasone, reference compound] | 30 | 67 | 3 | 0 | 0 | 29 | 71 | 0 | 0 | 0 | 0.5 | 99.5 | 0 | 0 | 0 | 1 | 99 | 0 | 0 | 0 | C < N, percentage of cells ([2]; ligand 5.10-8M): 5%; C << N, percentage of cells ([2]; ligand 5.10-8M): 95%; C = N, percentage of cells ([2]; ligand 5.10-8M): 0%; C > N, percentage of cells ([2]; ligand 5.10-8M): 0%; C >> N, percentage of cells ([2]; ligand 5.10-8M): 0%; C < N, percentage of cells ([2]; ligand 5.10-9M): 42.1%; C << N, percentage of cells ([2]; ligand 5.10-9M): 57.5%; C = N, percentage of cells ([2]; ligand 5.10-9M): 0.3%; C > N, percentage of cells ([2]; ligand 5.10-9M): 0%; C >> N, percentage of cells ([2]; ligand 5.10-9M): 0%; RLU ([3]; ligand 10-6, HUH-7): 238837; net ([3]; ligand 10-6, HUH-7): 185; rel/RLU ([3]; ligand 10-6, HUH-7): 314.7; net ([3]; ligand 10-7, HUH-7): 227; rel/RLU ([3]; ligand 10-7, HUH-7): 357.3
3 | COC(=O)CCNC(=O)OCC(=O)[C@@]1(O)CCC2C3CCC4=CC(=O)CCC4(C)C3C(O)CC21C (stereo partly drawn) [CL-C3-COOCH3, 2-carboxymethyl-ethyl-1-carboxamicacid-cortisol-21-ester] | 50 | 18 | 21 | 1 | 0 | 55 | 42 | 2 | 1 | 0 |  |  |  |  |  |  |  |  |  |  | 
4 | Cc1oc2c(C)c3oc(=O)cc(C)c3cc2c1CNC(=O)OCCCCCCNC(=O)OCC(=O)[C@@]1(O)[C@H](C)CC2C3CCC4=CC(=O)C=CC4(C)[C@@]3(F)C(O)CC21C (stereo partly drawn) [DEX-C6-Pso] |  |  |  |  |  |  |  |  |  |  | 10 | 90 | 0 | 0 | 0 | 6 | 94 | 0 | 0 | 0 | C < N, percentage of cells ([2]; ligand 5.10-8M): 29.4%; C << N, percentage of cells ([2]; ligand 5.10-8M): 60.8%; C = N, percentage of cells ([2]; ligand 5.10-8M): 9.8%; C > N, percentage of cells ([2]; ligand 5.10-8M): 0%; C >> N, percentage of cells ([2]; ligand 5.10-8M): 0%; C < N, percentage of cells ([2]; ligand 5.10-9M): 38.3%; C << N, percentage of cells ([2]; ligand 5.10-9M): 22.6%; C = N, percentage of cells ([2]; ligand 5.10-9M): 35.7%; C > N, percentage of cells ([2]; ligand 5.10-9M): 3.5%; C >> N, percentage of cells ([2]; ligand 5.10-9M): 0%
